Measured values: patent publication US20050197336A1 (Miikana Therapeutics Corporation, priority 2004, published 2005)

Experiments:
[1] = test system: Histone deacetylase (HDAC), HeLa cell nuclear extract; assay: In vitro fluorescent histone deacetylase assay (Biomol kit, HeLa cell nuclear extract); type: biochemical; conditions: compound at 100 μM; HeLa cell nuclear extract as HDAC source; substrate 50 μM; 10 min at room temperature
Description: Histone deacetylase (HDAC) activity assays were performed using the HDAC fluorescent activity assay/drug discovery kit (Biomol Research Laboratories, Plymouth Meeting, Pa.) essentially according to the manufacturer's instructions. The included HeLa cell nuclear extract, which contains a mosaic of HDAC enzymes and other nuclear factors, was used as the source of HDAC activity. The final substrate concentration in the assay mixture was 50 μM. The reaction was allowed to proceed for 10 min at room temperature before stopping the reaction. Test compounds were prepared as 20 mM stock solutions in DMSO (Molecular Biology grade, Sigma-Aldrich Co. St. Louis, Mo.) and stored at −70° C. Serial dilutions of test compounds were prepared in assay buffer immediately prior to testing. DMSO was determined in a separate trial to have no significant effect on the activity of this assay at concentrations up to 5%; the final DMSO concentration in the wells was no more than 2% and therefore DMSO effects were safely neglected. Assays were performed in white polystyrene 96-well half-area assay plates (Corning, Corning, N.Y.) and measured on a Wallace 1420 fluorescent plate reader (Wallac Oy, Turku, Finland) with an excitation wavelength of 355 nm, an emission wavelength of 460 nm, and a 1 sec signal averaging time.

MCF7 cells = assay: Whole cell cytotoxicity assay: Sulforhodamine B; type: cell-based, human; conditions: Homo sapiens; compound at 100 μM; MCF7 cell growth; 48 hours with drug; SRB staining
Description: The following procedure can be found on the Developmental Therapeutics Program NCI/NIH web site at http://dtp.nci.nih.gov/brancehes/btb/ivclsp.html.
1. Human tumor cell lines of HT29, A549 and MCF7 are grown in DMEM containing 10% fetal bovine serum and 2 mM L-glutamine. Cells are plated in a 96 well plate at a density of 5000 cells per well in 100 μL of growth medium and incubated at 37° C., 5% CO2, for 24 hours prior to the addition of experimental compounds.
2. Experimental drugs are solubilized in DMSO for a final concentration of 20 mM immediately prior to use. Drugs are further diluted in growth media for a total of nine drug concentrations and a growth control. At the 24 hour time point, one plate of cells is fixed in situ with TCA as a measurement of the cell population at time zero, or the time of drug addition.
3. The plates are further incubated with drug for an additional 48 hours.
4. The cells are fixed in situ by gently aspirating off the culture media and then adding 50 μL of ice cold 10% TCA per well and incubated at 4° C. for 60 minutes. The plates are washed with tap water five times and allowed to air dry for 5 minute.
5. 50 μL of a 0.4% (w/v) Sulforhodamine B solution in 1% (v/v) acetic acid is added per well and incubated for 30 minutes at room temperature.
6. Following staining, plates are washed five times with 1% acetic acid to remove any unbound dye and then allowed to air dry for 5 minutes.
7. Stain is solubilized with 100 μL of 10 mM Tris pH 10.5 per well and placed on an orbital rotator for 5 minutes.
8. Absorbance is read at 570 nm.

SMILES | % inhibition HDAC @ 100 μM [1] [%] | inhibition at 100 µM (MCF7 cells) [%]
Cc1c(Cl)cccc1S(=O)(=O)N1CCN(c2ncc(C(=O)NO)s2)CC1 [Example 32, 2-[4-(3-chloro-2-methylphenylsulfonyl)-piperazin-1-yl]-thiazole-5-carboxylic acid hydroxyamide] | 99 | 98.1
O=C(NO)c1cnc(N2CCN(S(=O)(=O)c3ccc(Oc4ccccc4)nc3)CC2)s1 [Example 47, 2-[4-(2-phenoxypyridine-5-sulfonyl)-piperazin-1-yl]-thiazole-5-carboxylic acid hydroxyamide] | 96 | 90.2
O=C(NO)c1cnc(N2CCN(S(=O)(=O)c3ccc(-c4cncnc4)cc3)CC2)s1 [Example 91, 2-[4-{(4-pyrimidine)benzenesulfonyl}-piperazin-1-yl]-thiazole-5-carboxylic acid hydroxyamide] | 99 | 94.6
O=C(NO)c1cnc(N2CCN(S(=O)(=O)c3ccc(-c4ccsc4CN4CCCC4)cc3)CC2)s1 [Example 82] | 99 | 92.7
O=C(NO)c1cnc(N2CCN(S(=O)(=O)c3ccc(-c4ccncc4)cc3)CC2)s1 [Example 72, 2-{4-[4-(pyridin-4-yl)phenylsulfonyl]piperazin-1-yl}-1,3-thiazole-5-carboxylic acid hydroxyamide] | 98 | 84.5
O=C(NO)c1cnc(N2CCN(S(=O)(=O)c3ccc(F)cc3)CC2)s1 [Example 11, 2-[4-(4-fluoro-benzenesulfonyl)-piperazin-1-yl]-thiazole-5-carboxylic acid hydroxyamide] | 98 | 96.7
O=C(NO)c1cnc(N2CCN(S(=O)(=O)c3ccc(-c4ccccc4Cl)cc3)CC2)s1 [Example 58, 2-{4-[(2′-chloro-1,1′-biphenyl-4-yl)sulfonyl]piperazin-1-yl}-1,3-thiazole-5-carboxylic acid hydroxyamide] | 95 | 97.6
Cc1ccc(S(=O)(=O)N2CCN(c3ncc(C(=O)NO)s3)CC2)cc1Cl [Example 30, 2-[4-(3-chloro-4-methylphenylsulfonyl)-piperazin-1-yl]-thiazole-5-carboxylic acid hydroxyamide] | 99 | 97.9
COc1ccc(S(=O)(=O)N2CCN(c3ncc(C(=O)NO)s3)CC2)cc1 [Example 103, 2-[4-(4-Methoxybenzenesulfonyl)piperazin-1-yl]-thiazole-5-carboxylic acid hydroxyamide] | 100 | 97.5
CN(C)Cc1ccc(-c2ccc(S(=O)(=O)N3CCN(c4ncc(C(=O)NO)s4)CC3)cc2)cc1 [Example 80] | 99 | 97.9
CN(C)C(=O)c1ccc(-c2ccc(S(=O)(=O)N3CCN(c4ncc(C(=O)NO)s4)CC3)cc2)cc1 [Example 68, 2-[4-(4′-N,N-dimethylcarboxamido-1,1′-biphenylsulfonyl)piperazin-1-yl]-1,3-thiazole-5-carboxylic acid hydroxyamide] | 99 | 84.7
O=C(NO)c1cnc(N2CCN(S(=O)(=O)c3cccc(CN4CCCC4)c3)CC2)s1 [Example 98] | 98 | 92.2
Cc1noc(C)c1S(=O)(=O)N1CCN(c2ncc(C(=O)NO)s2)CC1 [Example 27, 2-[4-(3,5-dimethylisoxazolesulfonyl)-pipiperazin-1-yl]-thiazole-5-carboxylic acid hydroxyamide] | 99 | 88.5
O=C(NO)c1cnc(N2CCN(S(=O)(=O)c3ccc(-c4cccc(Cl)c4)cc3)CC2)s1 [Example 57, 2-{4-[(3′-chloro-1,1′-biphenyl-4-yl)sulfonyl]piperazin-1-yl}-1,3-thiazole-5-carboxylic acid hydroxyamide] | 93 | 68.6
O=C(NO)c1cnc(N2CCN(S(=O)(=O)c3cc4ccccc4s3)CC2)s1 [Example 43] | 99 | 91
O=C(NO)c1cnc(N2CCN(S(=O)(=O)c3ccc(F)c(F)c3)CC2)s1 [Example 36, 2-[4-(3,4-difluorophenylsulfonyl)-piperazin-1-yl]-thiazole-5-carboxylic acid hydroxyamide] | 98 | 98.2

SMILES | % inhibition HDAC @ 100 μM [1] [%] | inhibition at 100 µM (MCF7 cells) [%]
O=C(NO)c1cnc(N2CCN(S(=O)(=O)c3cccs3)CC2)s1 [Example 8, 2-[4-(thiophene-2-benzenesulfonyl)-piperazin-1-Yl]-thiazole-5-carboxylic acid hydroxyamide] | 98 | 90.1
C=CCN(C)Cc1cccc(-c2ccc(S(=O)(=O)N3CCN(c4ncc(C(=O)NO)s4)CC3)cc2)c1.Cl [Example 79] | 99 | 98
CN(C)Cc1cccc(S(=O)(=O)N2CCN(c3ncc(C(=O)NO)s3)CC2)c1 [Example 97] | 99 | 83.9
CC1CCN(Cc2cccc(-c3ccc(S(=O)(=O)N4CCN(c5ncc(C(=O)NO)s5)CC4)cc3)c2)CC1.Cl [Example 76] | 99 | 98
Cl.O=C(NO)c1cnc(N2CCN(S(=O)(=O)c3ccc(-c4cccc(CN5CCCCCC5)c4)cc3)CC2)s1 [Example 77] | 100 | 98
CC(C)(C)c1ccc(-c2ccc(S(=O)(=O)N3CCN(c4ncc(C(=O)NO)s4)CC3)cc2)cc1 [Example 64] | 48 | 87
CCN(CC)Cc1cccc(-c2ccc(S(=O)(=O)N3CCN(c4ncc(C(=O)NO)s4)CC3)cc2)c1.Cl [Example 78] | 100 | 99
O=C(NO)c1cnc(N2CCN(S(=O)(=O)c3ccc(-c4ccc(CN5CCCC5)s4)cc3)CC2)s1 [Example 88] | 99 | 93.8
O=C(NO)c1cnc(N2CCN(S(=O)(=O)c3cccc(Cl)c3)CC2)s1 [Example 18, 2-[4-(3-chlorophenylsulfonyl)-piperazin-1-yl]-thiazole-5-carboxylic acid hydroxyamide] | 95 | 96.6
Cl.O=C(NO)c1cnc(N2CCN(S(=O)(=O)c3ccc(-c4cccc(CN5CCCC5)c4)cc3)CC2)s1 [Example 75] | 100 | 98.6
Cc1cc(F)ccc1S(=O)(=O)N1CCN(c2ncc(C(=O)NO)s2)CC1 [Example 41, 2-[4-(4-fluoro-2-methylphenylsulfonyl)-piperazin-1-yl]-thiazole-5-carboxylic acid hydroxyamide] | 98 | 98.1
O=C(NO)c1cnc(N2CCN(S(=O)(=O)c3ccc(-c4ccc(Cl)cc4)cc3)CC2)s1 [Example 62] | 98 | 75
CCN(C)Cc1cccc(-c2ccc(S(=O)(=O)N3CCN(c4ncc(C(=O)NO)s4)CC3)cc2)c1 [Example 86] | 99 | 97.8
Cc1cc(C)cc(S(=O)(=O)N2CCN(c3ncc(C(=O)NO)s3)CC2)c1 [Example 24, 2-[4-(3,5-dimethylphenylsulfonyl)-piperazin-1-yl]-thiazole-5-carboxylic acid hydroxyamide] | 100 | 95.3
CN(C)S(=O)(=O)N1CCN(c2ncc(C(=O)NO)s2)CC1 [Example 14, 2-[4-(N,N-dimethylsulfonyl)-piperazin-1-yl]-thiazole-5-carboxylic acid hydroxyamide] | 98 | 89.8
CN(C)c1ccc(S(=O)(=O)N2CCN(c3ncc(C(=O)NO)s3)CC2)cc1 [Example 29, 2-[4-(4-dimethylaminophenylsulfonyl)-piperazin-1-yl]-thiazole-5-carboxylic acid hydroxyamide] | 100 | 98.5
